Test results from US7341836B2, “Modified cyclic nucleotide gated ion channels” (The Regents of the University of Colorado, priority 2001, dated 2008).
“Also recorded” adds a separate entry of the source.

Assays:
PDE I = details: cited from earlier work
PDE IV = details: cited from earlier work
[1] = test system: PDE activity in GH4C1 cells; test: Effect of PDE inhibitors, forskolin and VIP on cAMP levels (Ca2+ influx through CNG channels); format: cell-based, rat; details: for d(ΔF/F0)/dt: basal cAMP, inhibitor concentration (μM)
Method: To further test the utility of this approach, PDE activity in excitable GH4C1 pituitary cells was examined. In all of the experiments shown (See, FIGS. 13-14, and Table 2), 1 μM nimodipine was added at time zero to block Ca^2+ influx though voltage-gated Ca^2+ channels (triggered by membrane depolarization due to Ca^2+ and Na^+ influx through CNG channels). […] FIGS. 13 and 14 each depict experiments done on a single batch of cells. As before, similar results were obtained on three other batches. In the experiments that produced the data shown in Table 2, cAMP concentrations were monitored using Ca^2+ influx through C460W/E583M channels. […] Either 100 μM IBMX or vehicle (-IBMX; control) were added at time zero. Then, 50 μM forskolin were added at 180 seconds d(ΔF/F0)/dt, which is proportional to the Ca^2+ influx rate, was estimated as described in the Examples. Data are provided as mean±standard error. IBMX or vehicle was added at 60 seconds (first arrow in FIG. 13). Either 10 μM forskolin or 100 nM VIP were added at 240 seconds (second arrow in FIG. 13). In the absence of IBMX, large forskolin or VIP-induced increases in Ca^2+ influx were observed. […] This level of basal AC activity was quite different from that observed in HEK-293 cells (See, FIGS. 9 and 10). 1 μM nimodipine was added at time 0 to block endogenous voltage-gated Ca^2+ channels.
To identify the PDE family or families that regulate the local cAMP concentration in GH4C1 cells, cAMP accumulation was monitored in the presence and absence of PDE inhibitors (See, Table 2). Again, the high cAMP affinity C460W/E583M channels were used. PDE inhibitors were added at 60 s. Although the addition of IBMX alone triggered Ca^2+ influx, 10 μM forskolin were added at 240 s as a positive control for CNG channel activity. […] This PDE is likely to have a low Km for cAMP because it is capable of regulating cAMP at concentrations too low for the WT or Δ61-90/C460W/E583M channels to detect. Thus, it is contemplated that a Ca^2+-CaM stimulated PDE (type I) is primarily responsible for controlling basal cAMP signals in GH4C1 cells.
In addition, PDE activity was monitored using Δ61-90/C460W/E583M channels to detect changes in cAMP concentration (See, FIG. 14). PDE inhibitors and forskolin were added as described above. With this construct, it was not possible to observe changes in cAMP concentration due to inhibition of PDE activity alone. […] Inhibitors specific to other PDE types had no effect on the forskolin-induced Ca^2+ influx (data not shown). […] It is contemplated that Ca^2+ influx through the C460W/E583M channels was saturated at cAMP concentrations below the Km for this PDE. Thus, it is contemplated that there are two different PDE types that regulate local cAMP signals in GH4C1 cells: a low Km, 8-methoxymethyl-IBMX sensitive PDE (type I); and a high Km, RO-20-1724-, rolipram-sensitive PDE (type IV).
GH4C1 rat pituitary cells (ATCC) were maintained in 13 mL Ham's F-10 medium (Life Technologies) supplemented with 14.3 mM NaHCO3, 15% donor horse serum (Gemini), and 2.5% fetal bovine serum, pH 6.8, in 75 cm^2 flasks at 37° C. in a humidified atmosphere of 95% air and 5% CO2. Cells were split weekly (1:4) and washed with fresh medium twice weekly. Cells were plated at ˜60% confluence in 100 mm culture dishes twenty-four hours prior to infection with the CNG-channel-encoding adenovirus constructs (multiplicity of infection=50 plaque forming units per cell). Forty-eight hours post-infection cells were detached, resuspended in serum-containing medium, and assayed within 12 hours.
In this Example, experiments conducted to examine the response of excitable GH4C1 pituitary cells to stimulation by either forskolin or the hormone vasoactive intestinal peptide (VIP), in the presence of absence of PDE inhibitors are described. […]

PDE III = details: cited from earlier work
PDE VII = target: T1, PDE VII (UniProt Q9QXQ1); details: cited from earlier work
T1 sequence (Q9QXQ1 1-446): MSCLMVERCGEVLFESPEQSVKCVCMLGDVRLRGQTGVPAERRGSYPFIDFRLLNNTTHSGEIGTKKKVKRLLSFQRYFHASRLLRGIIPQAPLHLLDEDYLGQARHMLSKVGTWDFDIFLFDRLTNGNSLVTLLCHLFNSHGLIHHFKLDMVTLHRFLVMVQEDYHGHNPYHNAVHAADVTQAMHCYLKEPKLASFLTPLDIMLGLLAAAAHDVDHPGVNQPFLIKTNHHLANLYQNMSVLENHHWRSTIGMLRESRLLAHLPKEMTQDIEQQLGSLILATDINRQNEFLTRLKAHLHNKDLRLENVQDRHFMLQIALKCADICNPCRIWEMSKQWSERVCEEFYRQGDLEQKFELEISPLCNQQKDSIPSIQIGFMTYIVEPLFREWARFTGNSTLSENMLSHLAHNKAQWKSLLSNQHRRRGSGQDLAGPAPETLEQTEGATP

PDE VIII = target: T2, PDE VIII (Mus musculus, UniProt O88502); details: cited from earlier work
T2 construct: host or cells: heterologously expressed
T2 sequence (O88502 1-823): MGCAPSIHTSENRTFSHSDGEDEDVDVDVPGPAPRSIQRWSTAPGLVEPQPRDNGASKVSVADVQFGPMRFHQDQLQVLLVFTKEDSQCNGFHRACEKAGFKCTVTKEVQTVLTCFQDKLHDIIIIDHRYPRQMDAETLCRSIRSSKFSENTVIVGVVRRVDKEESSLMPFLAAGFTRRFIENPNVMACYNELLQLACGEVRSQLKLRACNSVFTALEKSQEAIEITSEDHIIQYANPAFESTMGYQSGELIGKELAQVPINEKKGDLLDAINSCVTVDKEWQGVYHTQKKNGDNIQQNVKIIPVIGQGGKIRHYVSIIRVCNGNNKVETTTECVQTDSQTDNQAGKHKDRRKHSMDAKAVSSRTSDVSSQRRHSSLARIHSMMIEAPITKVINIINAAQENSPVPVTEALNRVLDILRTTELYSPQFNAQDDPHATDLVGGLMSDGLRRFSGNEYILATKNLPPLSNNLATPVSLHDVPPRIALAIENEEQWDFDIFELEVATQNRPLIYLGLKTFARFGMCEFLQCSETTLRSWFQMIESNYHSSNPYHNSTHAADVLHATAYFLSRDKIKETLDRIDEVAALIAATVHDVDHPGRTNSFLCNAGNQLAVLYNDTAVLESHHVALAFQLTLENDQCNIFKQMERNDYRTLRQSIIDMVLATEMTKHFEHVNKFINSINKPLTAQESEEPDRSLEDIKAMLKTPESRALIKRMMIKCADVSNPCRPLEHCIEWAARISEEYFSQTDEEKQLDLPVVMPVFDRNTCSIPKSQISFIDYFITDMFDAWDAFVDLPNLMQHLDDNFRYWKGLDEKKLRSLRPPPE

PDE VI = details: cited from earlier work
PDE IX = target: T3, PDE IX (UniProt O70628); details: read-out: IC50, PDE IX; cited from earlier work
T3 sequence (O70628 1-534): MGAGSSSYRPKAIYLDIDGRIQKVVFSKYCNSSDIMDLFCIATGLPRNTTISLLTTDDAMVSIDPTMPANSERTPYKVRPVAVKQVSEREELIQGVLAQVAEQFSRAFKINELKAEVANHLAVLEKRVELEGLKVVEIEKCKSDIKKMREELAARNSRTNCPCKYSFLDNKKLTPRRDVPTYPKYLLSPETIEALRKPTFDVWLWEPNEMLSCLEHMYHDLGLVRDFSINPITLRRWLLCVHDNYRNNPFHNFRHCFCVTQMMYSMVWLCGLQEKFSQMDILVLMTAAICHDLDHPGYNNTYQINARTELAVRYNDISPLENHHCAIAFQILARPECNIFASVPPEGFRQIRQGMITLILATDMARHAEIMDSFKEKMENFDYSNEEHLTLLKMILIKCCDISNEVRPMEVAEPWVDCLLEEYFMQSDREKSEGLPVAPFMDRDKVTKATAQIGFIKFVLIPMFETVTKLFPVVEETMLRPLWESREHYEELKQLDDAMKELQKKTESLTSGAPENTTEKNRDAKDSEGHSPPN

Compound | IC50 (PDE I) | IC50 (PDE IV) | Ca2+ influx induced by the PDE inhibitor alone (basal cAMP) ([1]; C460W/E583M channels, no AC stimulation) | d(ΔF/F0)/dt ([1]; C460W/E583M channels) | effect on forskolin-induced Ca2+ influx / PDE activity ([1]; Δ61-90/C460W/E583M channels, 10 μM forskolin) | IC50 (PDE III) | IC50 (PDE VII) | IC50 (PDE VIII) | IC50 (PDE VI) | IC50 (PDE IX)
COCc1nc2c([nH]1)c(=O)n(C)c(=O)n2CC(C)C [8-methoxymethyl-IBMX] | 2 to 8 µM | > 100 µM | induced Ca^2+ influx through CNG channels | 0.0025 ± 0.0009 s⁻¹ | significantly inhibited PDE activity; also recorded: increase forskolin-induced Ca^2+ influx through CNG channels | 69 µM |  |  |  | 
CCCOc1ccccc1-c1nc2nn[nH]c2c(=O)[nH]1 [Zaprinast] | 3 to 10 µM |  |  | 0 s⁻¹ |  | 10 µM | > 50 µM | > 100 µM | 0.15 µM | 29 to 35 µM
